Assay results: patent US20190040025A1, “INDOLEAMINE 2,3-DIOXYGENASE INHIBITOR, PREPARATION METHOD THEREFOR, AND APPLICATION” (Jiangsu Hansoh Pharmaceutical Group Co., Ltd., priority 2016, published 2019)

How the values were obtained:
[1] = Pharmacokinetic (PK) analysis of rat plasma; format: in vivo; conditions: Sprague-Dawley, po, 20 mg/kg, SD rats, single gavage, 20 mg/10 mL/kg
Procedure: The pharmacokinetics test of the test compound was performed with Sprague Dawley (SD) rats (Shanghai Slac Laboratory Animal Co., LTD).
Mode of administration: Single gavage.
U Dosage: 20 mg/10 mL/kg.
Formulation prescription: 3% dimethylacetamide and 20% hydroxypropyl-3-cyclodextrin.
Sampling points: before administration and 15 minutes, 0.5, 1, 2, 4, 6, 8 and 24 hours after administration.
Plasma sampling and sample processing: • 1) 0.2 ml of intravenous blood was collected and placed in an EDTA-2K tube. The blood was centrifuged at 4° C. for 5 minutes at 6,000 rpm to separate the plasma, which was stored at −80° C. • 2) 160 μL of acetonitrile were added to 40 μL of plasma sample, standard, and internal reference. The mixture was shaken vertically for 3 minutes, and centrifuged at 4000 rpm for 10 minutes. 100 μL of the supernatant were taken, and then added with 100 μL of deionized water and mixed well. 100 μL of the resulting solution was taken for LC/MS/MS analysis. The instrument for plasma LC/MS/MS analysis was AB Sciex API 4000.
Liquid Chromatography Analysis: • Liquid chromatography conditions: Shimadzu LC-20AD pump • Chromatographic column: phenomenex Gemiu 5 μm C18 50×4.6 mm • Mobile phase: solution A was 0.1% formic acid solution, and solution B was acetonitrile • Flow rate: 0.8 mL/min • Elution time: 0-3.01 minutes and the eluent was as follows:
• Mass spectrometry analysis: setup conditions of mass spectrometer: positive ion electrospray ionization (ESI) mode. • Experimental results: the main parameters of pharmacokinetics were calculated by WinNonlin 6.1 and the experimental results are shown in the following table: […]

[2] = test system: mouse pancreatic cancer cell line PAN02; experiment: Anti-tumor effect in PAN02 tumor-bearing mouse model; format: in vivo, mouse (C57/BL6); conditions: PAN02 tumor-bearing mice, 50 mg/kg intragastric twice a day
Text: The invention used the PAN02 tumor-bearing mouse model to test the anti-tumor effect of the example compounds. The PAN02 tumor-bearing mouse model was the mouse pancreatic cancer cell line PAN02 purchased from Guangzhou Ginnio Biological Technology Co., Ltd., and the culture medium used was DMEM containing 10% fetal bovine serum. The mouse strain used for tumor-bearing was C57/BL6 purchased from Shanghai Slac Laboratory Animal Co., Ltd. At the time of implanting, the PAN02 cells in the logarithmic growth phase were collected, and mixed with the BDMatrigel matrix gel that reduced the growth factor to 50 million cells/ml. Each mouse was implanted subcutaneously with 100 μL of 5 million cells. When the tumor grew to about 100 cubic millimeters, animals were randomly divided into groups with 8 animals per group. Drug administration was started (D0).
Mode of administration: intragastrical administration, twice a day.
(§1) Formulation prescription: 3% two methyl acetamide and 20% hydroxypropyl-β-cyclodextrin. • Administration period and tumor measurement: The administration period was 13 days. The tumor volume was measured, the mice were weighed, and the data were recorded, 3 times a week. The calculation formula of tumor volume (V) is: V=½a×b2, where a and b represent length and width respectively. The calculation formula of T/C is: T/C (%)=100×ΔT/ΔC. Tumor inhibition rate (%)=1−T/C (%). • Experimental results: the anti-tumor effect of the compound of Example 15 in PAN02 tumor-bearing mouse model is shown in the following table.

[3] = test system: mouse rectal cancer cell line Colon26; experiment: Anti-tumor effect in Colon26 tumor-bearing mouse model; format: in vivo, mouse (Balb/c); conditions: Colon26 tumor-bearing mice, 25 mg/kg intragastric twice a day
Text: The present invention further used the Colon26 tumor-bearing mouse model to test the anti-tumor effect of the example compounds. The Colon26 tumor-bearing mouse model was the mouse rectal cancer cell line Colon26 purchased from Guangzhou Ginio Biological Technology Co., Ltd., and the culture medium used was RPMI1640 containing 10% fetal bovine serum. The mouse strain used for tumor-bearing was Balb/c purchased from Sino-British SIPPR/BK Lab Animal Co., Ltd. At the time of implanting, the Colon26 cells in logarithmic growth phase were collected and mixed to 10 million cells/ml. Each mouse was implanted subcutaneously with 100 μl of one million cells. When the tumor grew to about 100 cubic millimeters, animals were randomly divided into groups with 8 animals per group. Drug administration was started (D0).
Mode of administration: intragastric administration, twice a day.
as §1, with “3% dimethylacetamide” for “3% two methyl acetamide”, “times per” for “times a”, “is: V=½a×b2” for “is: V=½a×b2,”, “and width,” for “and width”, “results: The antitumor” for “results: the anti-tumor”, “in Colon26” for “in PAN02”
Under the same experimental conditions, the dosage was adjusted. The anti-tumor effect of Example 15 and its optical isomers 18-(1) and 18-(2) in Colon26 tumor-bearing mouse model is shown in the following table: […]

AUC(0-inf) [1]: 2450 ng·h/mL
Cmax [1]: 306 ng/mL
Tmax [1]: 1 h
half-life [1]: 3.5 h
Structure (SMILES): NS(=O)(=O)NCCNc1nonc1C(=NO)Nc1ccc(F)c(Br)c1 [INCB-24360, Epacadostat, reference compound]
Average tumor volume (mm^3 ± SEM) D0 ([2]; D0 (start of administration)): 102.8 ± 3.4 mm^3
Average tumor volume (mm^3 ± SEM) D12 ([2]; D12): 242.1 ± 23.4 mm^3
T/C (%) D12 ([2]; D12): 60.3%
Tumor inhibition rate (%) D12 ([2]; D12, 50 mg/kg): 39.7%
Average tumor volume (mm^3 ± SEM) D0 ([3]; D0 (start of administration)): 95.3 ± 2.4 mm^3
Average tumor volume (mm^3 ± SEM) D12 ([3]; D12): 565.2 ± 10.9 mm^3
T/C (%) D12 ([3]; D12): 21.6%
Tumor inhibition rate (%) D12 ([3]; D12, 25 mg/kg): 78.4%
